Reference: EP0318620A1, “Herbicidal sulfonamides” (E.I. DU PONT DE NEMOURS AND COMPANY, priority 1987, dated 1989)

What was measured:
crabgrass = assay: Test A greenhouse herbicide test, pre- and postemergence; type: in vivo, Digitaria spp.; conditions: PREEMERGENCE; RATE 0.01 KG/HA; rated after sixteen days
From the text: (§1) Seeds of crabgrass (Digitaria spp.), barnyardgrass (Echinochloa crusgalli), cheatgrass (Bromus Secalinus), giant foxtail (Setaria faberii), wild oats (Avena fatua), velvetleaf (Abutilon theophrasti), morningglory (Ipomoea spp. , cocklebur (Xanthium pensylvanicum). sorghum, corn, barley, soybean, sugarbeet, cotton, rice, wheat and purple nutsedge (Cyperus rotundus) tubers were planted and treated preemergence with the test chemicals dissolved in a non-phytotoxic solvent. At the same time, these crop and weed species were treated with a soil/foliage application. At the time of treatment, the plants ranged in height from 2 to 18 cm. Treated plants and controls were maintained in a greenhouse for sixteen days, after which all species were compared to controls and visually rated for response to treatment. The ratings, summarized in Table A, are based on a numerical scale extending from 0 = no injury, to 10 = complete kill. The accompanying descriptive symbols have the following meanings: • B = burn; • C = chlorosis/necrosis; • D = defoliation; • E = emergence inhibition; • G = growth retardation; • H = formative effect; • U = unusual pigmentation; • X = axillary stimulation; • S = albinism; and • 6Y = abscised buds or flowers.

rice [1] = assay: as above; type: in vivo; conditions: rated after sixteen days
From the text: as §1

soybean [2] = assay: as above; type: in vivo; conditions: rated after sixteen days
From the text: as §1

giant foxtail [3] = assay: as above; type: in vivo, Setaria faberii; conditions: rated after sixteen days
From the text: as §1

velvetleaf = assay: Test B pan test in Sassafras sandy loam soil, pre- and postemergence; type: in vivo, Abutilon theophrasti; conditions: scale 0 to 100
From the text: (§2) Three round pans (25 cm diameter by 12.5 cm deep) were filled with Sassafras sandy loam soil. One pan was planted with nutsedge (Cyperus rotundus) tubers, crabgrass (Digitaria sanguinalis), sicklepod (Cassia obtusifolia), jimsonweed (Datura stramonium), velvetleaf (Abutilon theophrasti), lambsquarters (Chenopodim album), rice (Oryza sativa) and teaweed (Sida spinosa). The second pot was planted with green foxtail (Setaria viridis), cocklebur (Xantium pensyivanicum), morningglory (lpomoea hederacea), cotton (Gossypium hirsutum), johnsongrass (Sorghum halepense), barnyardgrass (Echinochloa crusgalli), corn (Zea mays), soybean (Glycine max) and giant foxtail (Setaria faberi). The third pot was planted with wheat (Triticum aestivum), barley (Hordeum vulgare), wild buckwheat (Polgonum convolvulus L.), cheatgrass (Bromus secalinus L.), sugarbeet (Beta vulgaris), wild oats (Avena fatua), viola (Viola arvensis), blackgrass (Alopecurus myosuroides), and rape (Brassica napus). The plants were grown for approximately fourteen days, then sprayed postemergence with the chemicals dissolved in a non-phytotoxic solvent.
(§3) Three round pans (25 cm diameter by 12.5 cm deep) were filled with Sassafras sandy loam soil. One pan was planted with nutsedge tubers, crabgrass, sicklepod, jimsonweed, velvetleaf, lambsquarters, rice and teaweed. The second pot was planted with green foxtail, cocklebur, morningglory, cottom, johnsongrass, . barnyardgrass, corn, soybean and giant foxtail. The third pot was planted with wheat, barley, wild buckwheat, cheatgrass, sugarbeet, wild oat, viola, blackgrass and rape. The three pans were sprayed preemer gence with the chemicals dissolved in a non-phytotoxic solvent.
(§4) Treated plants and controls were maintained in the greenhouse for 24 days, then all rated plants were compared to controls and visually rated for plant response.
(§5) A dash (-) response means no test.

rice [4] = assay: as above; type: in vivo, Oryza sativa; conditions: scale 0 to 100
From the text: as §2, §3, §4, §5

teaweed = assay: as above; type: in vivo, Sida spinosa; conditions: scale 0 to 100
From the text: as §2, §3, §4, §5

cotton = assay: as above; type: in vivo, Gossypium hirsutum; conditions: scale 0 to 100
From the text: as §2, §3, §4, §5

johnsongrass = assay: as above; type: in vivo, Sorghum halepense; conditions: scale 0 to 100
From the text: as §2, §3, §4, §5

corn = assay: as above; type: in vivo, Zea mays; conditions: scale 0 to 100
From the text: as §2, §3, §4, §5

soybean [5] = assay: as above; type: in vivo, Glycine max; conditions: scale 0 to 100
From the text: as §2, §3, §4, §5

giant foxtail [6] = assay: as above; type: in vivo, Setaria faberi; conditions: scale 0 to 100
From the text: as §2, §3, §4, §5

wild buckwheat = assay: as above; type: in vivo, Polgonum convolvulus L.; conditions: scale 0 to 100
From the text: as §2, §3, §4, §5

sugarbeet = assay: as above; type: in vivo, Beta vulgaris; conditions: scale 0 to 100
From the text: as §2, §3, §4, §5

CCOC(=O)c1c(CC#N)cccc1S(=O)(=O)NC(=O)Nc1nc(OC)cc(OC)n1 [Compound 3, 2-(cyanomethyl)-6 [[(4,6-dimethoxypyrimidin-2-yl)-aminocarbonyl]aminosulfonyl]benzoic acid, ethyl ester] was tested, and the “CRABGRASS visual rating of response to treatment” value (crabgrass) was 4G, the “RICE visual rating of response to treatment” value (“RICE visual rating of response” for short) (rice [1]; POSTEMERGENCE, RATE 0.01 KG/HA) was 9C and the “RICE visual rating of response” value (rice [1]; POSTEMERGENCE, RATE 0.05 KG/HA) was 9C. The “RICE visual rating of response” value (rice [1]; PREEMERGENCE, RATE 0.01 KG/HA) was 3G, the “SOYBEAN visual rating of response to treatment” value (soybean [2]; POSTEMERGENCE, RATE 0.05 KG/HA) was 9C and the “SOYBEAN visual rating of response to treatment” value (soybean [2]; PREEMERGENCE, RATE 0.01 KG/HA) was 5G. The “GIANT FOXTAIL visual rating of response to treatment” value (“GIANT FOXTAIL visual rating” for short) (giant foxtail [3]; POSTEMERGENCE, RATE 0.01 KG/HA) was 9C, the “GIANT FOXTAIL visual rating” value (giant foxtail [3]; POSTEMERGENCE, RATE 0.05 KG/HA) was 10C and the “GIANT FOXTAIL visual rating” value (giant foxtail [3]; PREEMERGENCE, RATE 0.01 KG/HA) was 5G. The VELVETLEAF response rating (velvetleaf; POSTEMERGENCE, RATE 0001 G/HA) was 70, the VELVETLEAF response rating (velvetleaf; POSTEMERGENCE, RATE 0004 G/HA) was 100 and the VELVETLEAF response rating (velvetleaf; POSTEMERGENCE, RATE 0016 G/HA) was 100. For the same compound, the VELVETLEAF response rating (velvetleaf; POSTEMERGENCE, RATE 0062 G/HA) was 100, the VELVETLEAF response rating (velvetleaf; PREEMERGENCE, RATE 0004 G/HA) was 0 and the VELVETLEAF response rating (velvetleaf; PREEMERGENCE, RATE 0016 G/HA) was 30. It also gave a VELVETLEAF response rating (velvetleaf; PREEMERGENCE, RATE 0062 G/HA) of 50, an RICE response rating (rice [4]; POSTEMERGENCE, RATE 0001 G/HA) of 60 and an RICE response rating (rice [4]; POSTEMERGENCE, RATE 0004 G/HA) of 90. For the same compound, the RICE response rating (rice [4]; POSTEMERGENCE, RATE 0016 G/HA) was 100, the RICE response rating (rice [4]; POSTEMERGENCE, RATE 0062 G/HA) was 100 and the RICE response rating (rice [4]; PREEMERGENCE, RATE 0004 G/HA) was 0. The RICE response rating (rice [4]; PREEMERGENCE, RATE 0016 G/HA) was 30, the RICE response rating (rice [4]; PREEMERGENCE, RATE 0062 G/HA) was 80 and the TEAWEED response rating (teaweed; POSTEMERGENCE, RATE 0001 G/HA) was 30. The TEAWEED response rating (teaweed; POSTEMERGENCE, RATE 0004 G/HA) was 50, the TEAWEED response rating (teaweed; POSTEMERGENCE, RATE 0016 G/HA) was 70 and the TEAWEED response rating (teaweed; POSTEMERGENCE, RATE 0062 G/HA) was 100. For the same compound, the TEAWEED response rating (teaweed; PREEMERGENCE, RATE 0004 G/HA) was 0, the TEAWEED response rating (teaweed; PREEMERGENCE, RATE 0016 G/HA) was 0 and the TEAWEED response rating (teaweed; PREEMERGENCE, RATE 0062 G/HA) was 0. For the same compound, the COTTON response rating (cotton; POSTEMERGENCE, RATE 0001 G/HA) was 30, the COTTON response rating (cotton; POSTEMERGENCE, RATE 0004 G/HA) was 100 and the COTTON response rating (cotton; POSTEMERGENCE, RATE 0016 G/HA) was 100. It also gave a COTTON response rating (cotton; POSTEMERGENCE, RATE 0062 G/HA) of 100, a COTTON response rating (cotton; PREEMERGENCE, RATE 0004 G/HA) of 0 and a COTTON response rating (cotton; PREEMERGENCE, RATE 0016 G/HA) of 0. For the same compound, the COTTON response rating (cotton; PREEMERGENCE, RATE 0062 G/HA) was 30, the JOHNSONGRASS response rating (johnsongrass; POSTEMERGENCE, RATE 0001 G/HA) was 30 and the JOHNSONGRASS response rating (johnsongrass; POSTEMERGENCE, RATE 0004 G/HA) was 60. For the same compound, the JOHNSONGRASS response rating (johnsongrass; POSTEMERGENCE, RATE 0016 G/HA) was 100, the JOHNSONGRASS response rating (johnsongrass; POSTEMERGENCE, RATE 0062 G/HA) was 100 and the JOHNSONGRASS response rating (johnsongrass; PREEMERGENCE, RATE 0004 G/HA) was 0. For the same compound, the JOHNSONGRASS response rating (johnsongrass; PREEMERGENCE, RATE 0016 G/HA) was 30, the JOHNSONGRASS response rating (johnsongrass; PREEMERGENCE, RATE 0062 G/HA) was 80 and the CORN response rating (corn; POSTEMERGENCE, RATE 0001 G/HA) was 90. For the same compound, the CORN response rating (corn; POSTEMERGENCE, RATE 0004 G/HA) was 100, the CORN response rating (corn; POSTEMERGENCE, RATE 0016 G/HA) was 100 and the CORN response rating (corn; POSTEMERGENCE, RATE 0062 G/HA) was 100. For the same compound, the CORN response rating (corn; PREEMERGENCE, RATE 0004 G/HA) was 0, the CORN response rating (corn; PREEMERGENCE, RATE 0016 G/HA) was 30 and the CORN response rating (corn; PREEMERGENCE, RATE 0062 G/HA) was 60. The SOYBEAN response rating (soybean [5]; POSTEMERGENCE, RATE 0001 G/HA) was 90, the SOYBEAN response rating (soybean [5]; POSTEMERGENCE, RATE 0004 G/HA) was 100 and the SOYBEAN response rating (soybean [5]; POSTEMERGENCE, RATE 0016 G/HA) was 100. It also gave an SOYBEAN response rating (soybean [5]; POSTEMERGENCE, RATE 0062 G/HA) of 100, an SOYBEAN response rating (soybean [5]; PREEMERGENCE, RATE 0004 G/HA) of 0 and an SOYBEAN response rating (soybean [5]; PREEMERGENCE, RATE 0016 G/HA) of 20. The SOYBEAN response rating (soybean [5]; PREEMERGENCE, RATE 0062 G/HA) was 40, the “GIANT FOXTAIL response rating” value (giant foxtail [6]; POSTEMERGENCE, RATE 0001 G/HA) was 90 and the “GIANT FOXTAIL response rating” value (giant foxtail [6]; POSTEMERGENCE, RATE 0004 G/HA) was 100. For the same compound, the “GIANT FOXTAIL response rating” value (giant foxtail [6]; POSTEMERGENCE, RATE 0016 G/HA) was 100, the “GIANT FOXTAIL response rating” value (giant foxtail [6]; POSTEMERGENCE, RATE 0062 G/HA) was 100 and the “GIANT FOXTAIL response rating” value (giant foxtail [6]; PREEMERGENCE, RATE 0004 G/HA) was 30. For the same compound, the “GIANT FOXTAIL response rating” value (giant foxtail [6]; PREEMERGENCE, RATE 0016 G/HA) was 60, the “GIANT FOXTAIL response rating” value (giant foxtail [6]; PREEMERGENCE, RATE 0062 G/HA) was 100 and the “WILD BUCKWHEAT response rating” value (wild buckwheat; POSTEMERGENCE, RATE 0001 G/HA) was 30. For the same compound, the “WILD BUCKWHEAT response rating” value (wild buckwheat; POSTEMERGENCE, RATE 0004 G/HA) was 60, the “WILD BUCKWHEAT response rating” value (wild buckwheat; POSTEMERGENCE, RATE 0016 G/HA) was 90 and the “WILD BUCKWHEAT response rating” value (wild buckwheat; POSTEMERGENCE, RATE 0062 G/HA) was 100. The “WILD BUCKWHEAT response rating” value (wild buckwheat; PREEMERGENCE, RATE 0004 G/HA) was 50, the “WILD BUCKWHEAT response rating” value (wild buckwheat; PREEMERGENCE, RATE 0016 G/HA) was 70 and the “WILD BUCKWHEAT response rating” value (wild buckwheat; PREEMERGENCE, RATE 0062 G/HA) was 90. The “SUGAR BEETS response rating” value (sugarbeet; POSTEMERGENCE, RATE 0001 G/HA) was 70, the “SUGAR BEETS response rating” value (sugarbeet; POSTEMERGENCE, RATE 0004 G/HA) was 100 and the “SUGAR BEETS response rating” value (sugarbeet; POSTEMERGENCE, RATE 0016 G/HA) was 100. The “SUGAR BEETS response rating” value (sugarbeet; POSTEMERGENCE, RATE 0062 G/HA) was 100, the “SUGAR BEETS response rating” value (sugarbeet; PREEMERGENCE, RATE 0004 G/HA) was 50 and the “SUGAR BEETS response rating” value (sugarbeet; PREEMERGENCE, RATE 0016 G/HA) was 70. For the same compound, the “SUGAR BEETS response rating” value (sugarbeet; PREEMERGENCE, RATE 0062 G/HA) was 90.
